The supplement of paper PMC11061612

Legend:
AZD0156 = compound: CN(C)CCCOc1ccc(-c2ccc3ncc4c(c3c2)n(C2CCOCC2)c(=O)n4C)cn1 [AZD0156]; conditions: max 3 µM
Method in brief: (§1)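 Cancer cell lines were dosed for 72 hours (final DMSO typically 0.2%) after 24 hours at 37°C and 5% CO2 in 1536-well plates containing 7.5 μl DMEM/F12 or RPMI with 10% FBS. Viability came from CellTiter-Glo 2.0 luminescence, scaled between blank-well and DMSO-well means, and dose responses were fitted to a two-parameter logistic curve with a non-linear mixed effects model. The single-agent IC50 was obtained from this fit.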

Lapatinib = compound: CS(=O)(=O)CCNCc1ccc(-c2ccc3ncnc(Nc4ccc(OCc5cccc(F)c5)c(Cl)c4)c3c2)o1 [Lapatinib]; conditions: max 10 µM
Method in brief: as §1

Savolitinib = compound: C[C@@H](c1ccc2nccn2c1)n1nnc2ncc(-c3cnn(C)c3)nc21 [Savolitinib]; conditions: max 1 µM
Method in brief: as §1

SG3199 = compound: CC1=CN2[C@@H](C1)C=NC3=CC(=C(C=C3C2=O)OC)OCCCCCOC4=C(C=C5C(=C4)N=C[C@@H]6CC(=CN6C5=O)C)OC [SG3199]; conditions: max 0.001 µM
Method in brief: as §1

Crizotinib = compound: C[C@@H](Oc1cc(-c2cnn(C3CCNCC3)c2)cnc1N)c1c(Cl)ccc(F)c1Cl [Crizotinib]; conditions: max 10 µM
Method in brief: as §1

Palbociclib = compound: CC(=O)c1c(C)c2cnc(Nc3ccc(N4CCNCC4)cn3)nc2n(C2CCCC2)c1=O [Palbociclib]; conditions: max 10 µM
Method in brief: as §1

Prexasertib = compound: COc1cccc(OCCCN)c1-c1cc(Nc2cnc(C#N)cn2)n[nH]1 [Prexasertib]; conditions: max 1 µM
Method in brief: as §1

Capivasertib = compound: C1CN(CCC1(C(=O)N[C@@H](CCO)C2=CC=C(C=C2)Cl)N)C3=NC=NC4=C3C=CN4 [Capivasertib]; conditions: max 10 µM
Method in brief: as §1

Taselisib = compound: Cc1nc(-c2cn3c(n2)-c2ccc(-c4cnn(C(C)(C)C(N)=O)c4)cc2OCC3)n(C(C)C)n1 [Taselisib]; conditions: max 10 µM
Method in brief: as §1

AZD5991 = compound: Cc1c2c(nn1C)CSCc1cc(n(C)n1)CSc1cc(c3ccccc3c1)OCCCc1c(C(=O)O)n(C)c3c-2c(Cl)ccc13 [AZD5991]; conditions: max 1 µM
Method in brief: as §1

AZD8186 = compound: C[C@@H](Nc1cc(F)cc(F)c1)c1cc(C(=O)N(C)C)cc2c(=O)cc(N3CCOCC3)oc12 [AZD8186]; conditions: max 3 µM
Method in brief: as §1

Trametinib = compound: CC(=O)Nc1cccc(-n2c(=O)n(C3CC3)c(=O)c3c(Nc4ccc(I)cc4F)n(C)c(=O)c(C)c32)c1 [Trametinib]; conditions: max 1 µM
Method in brief: as §1

AZD2811 = compound: CCN(CCO)CCCOc1ccc2c(Nc3cc(CC(=O)Nc4cccc(F)c4)[nH]n3)ncnc2c1 [AZD2811]; conditions: max 1 µM
Method in brief: as §1

Venetoclax = compound: CC1(C)CCC(CN2CCN(c3ccc(C(=O)NS(=O)(=O)c4ccc(NCC5CCOCC5)c([N+](=O)[O-])c4)c(Oc4cnc5[nH]ccc5c4)c3)CC2)=C(c2ccc(Cl)cc2)C1 [Venetoclax]; conditions: max 1 µM
Method in brief: as §1

Doxorubicin = compound: COc1cccc2c1C(=O)c1c(O)c3c(c(O)c1C2=O)C[C@@](O)(C(=O)CO)C[C@@H]3O[C@H]1C[C@H](N)[C@H](O)[C@H](C)O1 [Doxorubicin]; conditions: max 1 µM
Method in brief: as §1

Selumetinib = compound: Cn1cnc2c(F)c(Nc3ccc(Br)cc3Cl)c(C(=O)NOCCO)cc21 [Selumetinib]; conditions: max 10 µM
Method in brief: as §1

Gefitinib = compound: COc1cc2ncnc(Nc3ccc(F)c(Cl)c3)c2cc1OCCCN1CCOCC1 [Gefitinib]; conditions: max 10 µM
Method in brief: as §1

AZD7648 = compound: Cc1cc2ncnn2cc1Nc1ncc2c(n1)n(C1CCOCC1)c(=O)n2C [AZD7648]; conditions: max 10 µM
Method in brief: as §1

AZD5153 = compound: COc1nnc2ccc(N3CCC(c4ccc(OCCN5CCN(C)C(=O)[C@H]5C)cc4)CC3)nn12 [AZD5153]; conditions: max 1 µM
Method in brief: as §1

AZD4320 = compound: CN(CC[C@H](CSC1=CC=CC=C1)NC2=C(C=C(C=C2)S(=O)(=O)NC(=O)C3=CC=C(C=C3)N4CCC(CC4)[C@H](C5=CC=CC=C5C6=CC=C(C=C6)Cl)O)S(=O)(=O)C(F)(F)F)CCO [AZD4320]; conditions: max 1 µM
Method in brief: as §1

Alisertib = compound: COc1cc(Nc2ncc3c(n2)-c2ccc(Cl)cc2C(c2c(F)cccc2OC)=NC3)ccc1C(=O)O [Alisertib]; conditions: max 10 µM
Method in brief: as §1

SN-38 = compound: CCc1c2c(nc3ccc(O)cc13)-c1cc3c(c(=O)n1C2)COC(=O)[C@]3(O)CC [SN-38]; conditions: max 0.3 µM
Method in brief: as §1

AZD6738 = compound: C[C@@H]1COCCN1C2=NC(=NC(=C2)C3(CC3)[S@](=N)(=O)C)C4=C5C=CNC5=NC=C4 [AZD6738]; conditions: max 10 µM
Method in brief: as §1

AZD1775 = compound: C=CCn1c(=O)c2cnc(Nc3ccc(N4CCN(C)CC4)cc3)nc2n1-c1cccc(C(C)(C)O)n1 [AZD1775]; conditions: max 3 µM
Method in brief: as §1

Dasatinib = compound: CC1=C(C(=CC=C1)Cl)NC(=O)C2=CN=C(S2)NC3=CC(=NC(=N3)C)N4CCN(CC4)CCO [Dasatinib]; conditions: max 2 µM
Method in brief: as §1

AZD1390 = compound: CC(C)n1c(=O)n(C)c2cnc3cc(F)c(-c4ccc(OCCCN5CCCCC5)nc4)cc3c21 [AZD1390]; conditions: max 0.3 µM
Method in brief: as §1

Olaparib = compound: O=C(c1cc(Cc2n[nH]c(=O)c3ccccc23)ccc1F)N1CCN(C(=O)C2CC2)CC1 [Olaparib]; conditions: max 10 µM
Method in brief: as §1

Row | Cell Line | IC50, cell viability 72 h (AZD0156) [µM] | IC50, cell viability 72 h (Lapatinib) [µM] | IC50, cell viability 72 h (Savolitinib) [µM] | IC50, cell viability 72 h (SG3199) [µM] | IC50, cell viability 72 h (Crizotinib) [µM] | IC50, cell viability 72 h (Palbociclib) [µM] | IC50, cell viability 72 h (Prexasertib) [µM] | IC50, cell viability 72 h (Capivasertib) [µM] | IC50, cell viability 72 h (Taselisib) [µM] | IC50, cell viability 72 h (AZD5991) [µM] | IC50, cell viability 72 h (AZD8186) [µM] | IC50, cell viability 72 h (Trametinib) [µM] | IC50, cell viability 72 h (AZD2811) [µM] | IC50, cell viability 72 h (Venetoclax) [µM] | IC50, cell viability 72 h (Doxorubicin) [µM] | IC50, cell viability 72 h (Selumetinib) [µM] | IC50, cell viability 72 h (Gefitinib) [µM] | IC50, cell viability 72 h (AZD7648) [µM] | IC50, cell viability 72 h (AZD5153) [µM] | IC50, cell viability 72 h (AZD4320) [µM] | IC50, cell viability 72 h (Alisertib) [µM] | IC50, cell viability 72 h (SN-38) [µM] | IC50, cell viability 72 h (AZD6738) [µM] | IC50, cell viability 72 h (AZD1775) [µM] | IC50, cell viability 72 h (Dasatinib) [µM] | IC50, cell viability 72 h (AZD1390) [µM] | IC50, cell viability 72 h (Olaparib) [µM]
1 | HuH-7 (Hepatocellular Carcinoma) | > 3 | > 10 | > 1 | > 0.001 | > 10 | > 10 | > 1 | > 10 | > 10 | > 1 | > 3 | > 1 | > 1 | > 1 | > 1 | > 10 | > 10 | > 10 | > 1 | > 1 | > 10 | > 0.3 | > 10 | > 3 | > 2 | > 0.3 | > 10
2 | KMRC-20 (Kidney Carcinoma) | > 3 | > 10 | > 1 | > 0.001 | > 10 | > 10 | 0.0314 | > 10 | > 10 | > 1 | > 3 | > 1 | > 1 | > 1 | > 1 | > 10 | > 10 | > 10 | > 1 | > 1 | 6.92 | 0.0328 | > 10 | 1.29 | 0.875 | > 0.3 | > 10
3 | L-428 (Hodgkin's Lymphoma) | > 3 | > 10 | > 1 | > 0.001 | > 10 | > 10 | 0.0233 | > 10 | > 10 | > 1 | > 3 | > 1 | > 1 | > 1 | 0.106 | > 10 | > 10 | > 10 | 0.13 | 0.475 | > 10 | 0.0469 | 5.4 | 0.429 | > 2 | > 0.3 | > 10
4 | LCLC-97TM1 (Non-Small Cell Lung Carcinoma) | > 3 | > 10 | > 1 | > 0.001 | 4.84 | > 10 | 0.0283 | > 10 | 3.36 | > 1 | > 3 | 0.0264 | > 1 | > 1 | > 1 | 3.19 | > 10 | > 10 | 0.153 | > 1 | 3.44 | 0.0756 | 2.28 | 1.38 | > 2 | > 0.3 | > 10
